Data on 17 compounds can be found in ChEMBL document CHEMBL1909046, “DrugMatrix in vitro pharmacology data”.

For assay [1], the target named is T1, Alpha-2C adrenergic receptor (Homo sapiens, UniProt P18825).
T1 sequence (P18825 whole entry): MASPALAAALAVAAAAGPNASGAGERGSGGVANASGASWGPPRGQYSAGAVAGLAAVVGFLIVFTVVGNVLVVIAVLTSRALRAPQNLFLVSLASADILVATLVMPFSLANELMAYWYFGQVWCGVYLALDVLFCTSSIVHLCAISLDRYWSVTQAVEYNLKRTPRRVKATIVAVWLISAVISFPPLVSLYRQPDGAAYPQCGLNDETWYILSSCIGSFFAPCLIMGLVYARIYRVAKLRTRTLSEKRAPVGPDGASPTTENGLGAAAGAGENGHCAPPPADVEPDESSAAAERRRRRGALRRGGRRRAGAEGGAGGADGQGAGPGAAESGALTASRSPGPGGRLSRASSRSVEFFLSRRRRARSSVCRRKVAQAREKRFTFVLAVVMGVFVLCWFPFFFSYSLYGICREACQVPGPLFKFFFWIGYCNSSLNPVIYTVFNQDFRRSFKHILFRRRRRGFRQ
Nature of the assay: DRUGMATRIX: Adrenergic Alpha-2C radioligand binding (ligand: [3H] MK-912). It counts as cell membranes, Sf9, Membrane.

In the next assay the target is T2, Adenosine receptor A3 (Homo sapiens, UniProt P0DMS8).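 Further: radioligand binding assay with AB-MECA serving as the labeled ligand; in other assays of this panel Not Active means under 50% inhibition at 10 µM.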
T2 sequence (P0DMS8 whole entry): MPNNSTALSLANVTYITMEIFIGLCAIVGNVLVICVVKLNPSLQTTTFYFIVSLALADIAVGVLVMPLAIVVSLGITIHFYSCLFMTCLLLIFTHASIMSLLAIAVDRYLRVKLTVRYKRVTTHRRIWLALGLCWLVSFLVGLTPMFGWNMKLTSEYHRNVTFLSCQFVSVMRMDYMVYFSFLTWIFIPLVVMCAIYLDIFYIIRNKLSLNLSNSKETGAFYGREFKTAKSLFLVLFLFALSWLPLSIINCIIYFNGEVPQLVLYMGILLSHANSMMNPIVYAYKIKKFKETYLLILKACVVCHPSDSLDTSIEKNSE
It counts as cell membranes, CHO-K1, Membrane. The following applies: for Ki: read-out: Ki.

Assay [2] has as its target Mitogen-activated protein kinase 3 (Homo sapiens, UniProt P27361). Nature of the assay: DRUGMATRIX: Protein Serine/Threonine Kinase, ERK1 enzyme inhibition (substrate: Myelin Basic Protein). More on the design: species or system Escherichia coli. The following applies: Not Active = under 50% inhibition at 10 µM.
Assay [3] in a line: DRUGMATRIX: Glutamate, AMPA radioligand binding (ligand: [3H] AMPA). The following applies: Not Active = under 50% inhibition at 10 µM. It counts as cell membranes, Rattus norvegicus, Wistar, Cerebral cortex, Membrane.
A further assay addresses Insulin receptor (Rattus norvegicus, UniProt P15127). Format: cell membranes, Wistar, Liver, Membrane.
Assay [4] is described as follows: DRUGMATRIX: Leukotriene, BLT (LTB4) radioligand binding (ligand: [3H]LTB4). Format: cell membranes, Membrane. The following applies: u-937, Not Active = under 50% inhibition at 10 µM.

Chain of Mitogen-activated protein kinase 3 (P27361 whole entry): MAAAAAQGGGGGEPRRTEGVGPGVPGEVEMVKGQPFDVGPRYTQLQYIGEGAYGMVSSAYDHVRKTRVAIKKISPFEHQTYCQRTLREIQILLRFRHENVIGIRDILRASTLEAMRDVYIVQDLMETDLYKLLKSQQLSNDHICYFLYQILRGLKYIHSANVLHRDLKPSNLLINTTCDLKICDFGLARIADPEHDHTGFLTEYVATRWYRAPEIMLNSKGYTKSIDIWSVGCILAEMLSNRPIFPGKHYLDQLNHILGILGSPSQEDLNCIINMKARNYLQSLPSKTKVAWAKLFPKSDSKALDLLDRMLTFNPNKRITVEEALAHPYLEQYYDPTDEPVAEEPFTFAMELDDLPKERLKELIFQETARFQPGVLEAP
Chain of Insulin receptor (P15127 27-759 limits assumed): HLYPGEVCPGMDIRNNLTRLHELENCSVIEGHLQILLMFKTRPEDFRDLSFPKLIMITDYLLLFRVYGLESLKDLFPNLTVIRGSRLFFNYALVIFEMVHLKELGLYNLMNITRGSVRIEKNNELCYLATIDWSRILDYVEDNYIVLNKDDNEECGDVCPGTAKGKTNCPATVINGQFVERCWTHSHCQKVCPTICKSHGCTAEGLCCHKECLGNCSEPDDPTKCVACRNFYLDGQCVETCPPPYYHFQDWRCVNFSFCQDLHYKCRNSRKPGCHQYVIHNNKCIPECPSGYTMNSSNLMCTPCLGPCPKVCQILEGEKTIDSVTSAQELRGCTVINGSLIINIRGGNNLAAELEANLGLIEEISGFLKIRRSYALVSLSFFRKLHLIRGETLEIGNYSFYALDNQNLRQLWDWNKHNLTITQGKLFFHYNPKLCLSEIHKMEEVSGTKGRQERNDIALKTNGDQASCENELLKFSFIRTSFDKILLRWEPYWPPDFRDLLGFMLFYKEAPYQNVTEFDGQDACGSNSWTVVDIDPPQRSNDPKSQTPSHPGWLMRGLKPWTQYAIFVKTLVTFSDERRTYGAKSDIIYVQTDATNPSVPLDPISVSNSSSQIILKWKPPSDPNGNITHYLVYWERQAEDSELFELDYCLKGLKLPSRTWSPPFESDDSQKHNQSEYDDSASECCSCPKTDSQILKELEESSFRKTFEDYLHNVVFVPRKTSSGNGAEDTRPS
Chain of Insulin receptor (P15127 764-1383 limits assumed): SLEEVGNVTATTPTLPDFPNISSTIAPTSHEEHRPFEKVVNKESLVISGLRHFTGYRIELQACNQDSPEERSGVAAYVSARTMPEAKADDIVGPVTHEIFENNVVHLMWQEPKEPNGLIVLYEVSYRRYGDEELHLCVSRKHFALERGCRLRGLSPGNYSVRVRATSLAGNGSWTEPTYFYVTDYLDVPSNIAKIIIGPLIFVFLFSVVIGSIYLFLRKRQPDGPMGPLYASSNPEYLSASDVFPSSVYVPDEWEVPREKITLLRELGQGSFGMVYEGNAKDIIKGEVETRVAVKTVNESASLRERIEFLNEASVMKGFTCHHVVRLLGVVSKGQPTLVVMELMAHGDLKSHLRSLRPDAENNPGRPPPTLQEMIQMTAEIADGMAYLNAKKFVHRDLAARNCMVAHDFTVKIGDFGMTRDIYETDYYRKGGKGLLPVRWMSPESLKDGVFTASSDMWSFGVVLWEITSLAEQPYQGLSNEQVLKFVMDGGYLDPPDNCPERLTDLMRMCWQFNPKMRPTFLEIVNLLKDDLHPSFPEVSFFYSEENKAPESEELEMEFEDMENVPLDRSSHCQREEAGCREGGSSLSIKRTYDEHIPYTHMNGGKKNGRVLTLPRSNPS

Regarding `CCN1CCN(C(=O)N[C@@H](C(=O)N[C@@H]2C(=O)N3[C@@H]2SC(C)(C)[C@@H]3C(=O)O)c2ccccc2)C(=O)C1=O` [PIPERACILLIN], the IC50 result (in assay [1] (sf9); on Adenosine receptor A3 (cho-k1); in assay [2]; in assay [3]; against Insulin receptor; in assay [4]) was “Not Active” throughout. Besides, the Ki result in assay [3] and in assay [4] was “Not Active” throughout.

For `CC[C@H]1OC(=O)[C@H](C)[C@@H](O[C@H]2C[C@@](C)(OC)[C@@H](O)[C@H](C)O2)[C@H](C)[C@@H](O[C@@H]2O[C@H](C)C[C@H](N(C)C)[C@H]2O)[C@](C)(O)C[C@@H](C)C(=O)[C@H](C)[C@@H](O)[C@]1(C)O` [ERYTHROMYCIN], the IC50 entry (in assay [1] (sf9); against Adenosine receptor A3 (cho-k1); in assay [2]; in assay [3]; against Insulin receptor; in assay [4]) was “Not Active” throughout. Further, the Ki entry in assay [3] and in assay [4] was “Not Active” throughout.

In the case of `NC(N)=Nc1nc(CSCCC(N)=NS(N)(=O)=O)cs1` [FAMOTIDINE], the IC50 result (in assay [1] (sf9); at Adenosine receptor A3 (cho-k1); in assay [2]; in assay [3]; against Insulin receptor; in assay [4]) was “Not Active” throughout. The Ki result in assay [3] and in assay [4] was “Not Active” each time.

Consider `CN(CCOc1ccc(C[C@H](Nc2ccccc2C(=O)c2ccccc2)C(=O)O)cc1)c1ccccn1`, for which the IC50 (in general, the concentration that gives 50% inhibition) in assay [1] (sf9) was “Not Active”; at Adenosine receptor A3 (read-out: IC50), 14300 nM; in assay [2], “Not Active”; in assay [3], “Not Active”; against Insulin receptor it was “Not Active”; in assay [4], “Not Active”. Further, the Ki (in general, the dissociation constant of the complex between target and ligand, obtained from inhibition or displacement) was 8090 nM at Adenosine receptor A3, “Not Active” in assay [3] and “Not Active” in assay [4].

Turning to `COc1cc(NC(C)CCCN)c2ncccc2c1` (centres undefined) [PRIMAQUINE], the IC50 result (in assay [1] (sf9); at Adenosine receptor A3 (cho-k1); in assay [2]; in assay [3]; against Insulin receptor; in assay [4]) was “Not Active” throughout. The Ki entry in assay [3] and in assay [4] was “Not Active” throughout.

`c1ccc2sc(SSc3nc4ccccc4s3)nc2c1` [BENZOTHIAZYL DISULFIDE]: the IC50 was 1660 nM in assay [1] (read-out: IC50); 347 nM on Adenosine receptor A3 (read-out: IC50); “Not Active” in assay [2]; “Not Active” in assay [3]; “Not Active” against Insulin receptor; 5100 nM in assay [4] (read-out: IC50). Moreover, the Ki is 241 nM in assay [1] (read-out: Ki), 196 nM at Adenosine receptor A3, “Not Active” in assay [3] and 1300 nM in assay [4] (read-out: Ki).

Consider `CC(C)(C#N)c1cc(Cn2cncn2)cc(C(C)(C)C#N)c1` [ANASTROZOLE], for which the IC50 result (in assay [1] (sf9); against Adenosine receptor A3 (cho-k1); in assay [2]; in assay [3]; against Insulin receptor; in assay [4]) was “Not Active” throughout. Moreover, the Ki result in assay [3] and in assay [4] was “Not Active” throughout.

As to `CC(=O)[C@]1(O)Cc2c(O)c3c(c(O)c2[C@@H](O[C@H]2C[C@H](N)[C@H](O)[C@H](C)O2)C1)C(=O)c1ccccc1C3=O` [IDARUBICIN], the IC50 result (in assay [1] (sf9); against Adenosine receptor A3 (cho-k1); in assay [2]; in assay [3]; against Insulin receptor; in assay [4]) was “Not Active” each time. For the same compound, the Ki entry in assay [3] and in assay [4] was “Not Active” each time.

With `O=C(O)c1ccccc1` [BENZOIC ACID], the IC50 result (in assay [1] (sf9); against Adenosine receptor A3 (cho-k1); in assay [2]; in assay [3]; against Insulin receptor; in assay [4]) was “Not Active” throughout. The Ki entry in assay [3] and in assay [4] was “Not Active” each time.

With `O=C(Nc1ccc(Cl)c(Cl)c1)c1cc(Cl)cc(Cl)c1O` [3,3',4',5-TETRACHLOROSALICYLANILIDE], the IC50 result (in assay [1] (sf9); on Adenosine receptor A3 (cho-k1); in assay [2]; in assay [3]; against Insulin receptor; in assay [4]) was “Not Active” throughout. The Ki entry in assay [3] and in assay [4] was “Not Active” throughout.

As to `CC(C)NCC(O)COc1ccc(CC(N)=O)cc1` (centres undefined) [ATENOLOL], the IC50 result (in assay [1] (sf9); at Adenosine receptor A3 (cho-k1); in assay [2]; in assay [3]; at Insulin receptor; in assay [4]) was “Not Active” in each case. Also, the inhibitory constant (Ki) result in assay [3] and in assay [4] was “Not Active” in each case.

With `OC[C@H]1O[C@@H]2O[C@H]3[C@H](O)[C@@H](O)[C@@H](O[C@H]4[C@H](O)[C@@H](O)[C@@H](O[C@H]5[C@H](O)[C@@H](O)[C@@H](O[C@H]6[C@H](O)[C@@H](O)[C@@H](O[C@H]7[C@H](O)[C@@H](O)[C@@H](O[C@H]1[C@H](O)[C@H]2O)O[C@@H]7CO)O[C@@H]6CO)O[C@@H]5CO)O[C@@H]4CO)O[C@@H]3CO` [ALFADEX], the IC50 entry (in assay [1] (sf9); against Adenosine receptor A3 (cho-k1); in assay [2]; in assay [3]; on Insulin receptor; in assay [4]) was “Not Active” throughout. Further, the inhibition constant Ki result in assay [3] and in assay [4] was “Not Active” throughout.

`CC(=O)Nc1ccc2c(c1)Cc1ccccc1-2` [2-ACETYLAMINOFLUORENE]: the IC50 entry (in assay [1] (sf9); against Adenosine receptor A3 (cho-k1); in assay [2]; in assay [3]; on Insulin receptor; in assay [4]) was “Not Active” throughout. The Ki result in assay [3] and in assay [4] was “Not Active” each time.

Take `CCN1CCN(c2cc3c(cc2F)c(=O)c(C(=O)O)cn3C2CC2)CC1` [ENROFLOXACIN]: the IC50 entry (in assay [1] (sf9); at Adenosine receptor A3 (cho-k1); in assay [2]; in assay [3]; against Insulin receptor; in assay [4]) was “Not Active” in each case. The Ki entry in assay [3] and in assay [4] was “Not Active” throughout.

For `O=C(O)CO` [GLYCOLIC ACID], the IC50 entry (in assay [1] (sf9); against Adenosine receptor A3 (cho-k1); in assay [2]; in assay [3]; against Insulin receptor; in assay [4]) was “Not Active” throughout. The Ki entry in assay [3] and in assay [4] was “Not Active” throughout.

In the case of `CC12CCC(CC1)C(C)(C)O2` [EUCALYPTOL], the IC50 result (in assay [1] (sf9); against Adenosine receptor A3 (cho-k1); in assay [2]; in assay [3]; at Insulin receptor; in assay [4]) was “Not Active” throughout. Also, the Ki entry in assay [3] and in assay [4] was “Not Active” in each case.

Turning to `CCN(CCO)CCCC(C)Nc1ccnc2cc(Cl)ccc12` (centres undefined) [HYDROXYCHLOROQUINE], the half-inhibitory concentration (IC50) entry (in assay [1] (sf9); on Adenosine receptor A3 (cho-k1); in assay [2]; in assay [3]; at Insulin receptor; in assay [4]) was “Not Active” in each case. Moreover, the Ki result in assay [3] and in assay [4] was “Not Active” in each case.
